Laboratory results reported in patent US20020037531A1, “Expression cloning of protein targets for phospholipids” (priority 1999, published 2002).
Residue numbers refer to the chain shown, from its start.

Assays:
[1] = biological target: T1, PH domain of PDK1 (Homo sapiens, UniProt O15530); settings: literature, relative affinities; cited from earlier work
T1 sequence (O15530 459-550 limits assumed): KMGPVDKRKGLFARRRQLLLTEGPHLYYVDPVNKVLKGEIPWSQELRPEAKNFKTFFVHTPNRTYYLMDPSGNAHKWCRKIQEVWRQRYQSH

[2] = biological target: T2, PH domain of EST684797 (Homo sapiens, UniProt Q9UN19); settings: literature; cited from earlier work
T2 sequence (Q9UN19 164-259): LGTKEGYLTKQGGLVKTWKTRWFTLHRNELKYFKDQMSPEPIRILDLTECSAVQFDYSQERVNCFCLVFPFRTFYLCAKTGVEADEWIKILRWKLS

[3] = biological target: T3, PHISH (Mus musculus, UniProt Q9QXT1); assay: Competition binding of non-biotinylated lipids against biotinylated PtdIns-3,4,5-P3 on avidin beads; parameters: species or system murine; settings: for relative affinity for PHISH in competition binding studies: FIG. 4B; for displacement of PHISH from PtdIns-3,4,5-P3-biotin bound to avidin beads: FIG. 4B legend, compared with PtdIns-4,5-P2
T3 construct: the gene for PHISH isolated from the expression screen encodes the entire protein; made in house; host or cells: in vitro transcription/translation (reticulocyte lysate) of a clone from a murine spleen cDNA library in pCS2(+)
T3 sequence (Q9QXT1 1-280): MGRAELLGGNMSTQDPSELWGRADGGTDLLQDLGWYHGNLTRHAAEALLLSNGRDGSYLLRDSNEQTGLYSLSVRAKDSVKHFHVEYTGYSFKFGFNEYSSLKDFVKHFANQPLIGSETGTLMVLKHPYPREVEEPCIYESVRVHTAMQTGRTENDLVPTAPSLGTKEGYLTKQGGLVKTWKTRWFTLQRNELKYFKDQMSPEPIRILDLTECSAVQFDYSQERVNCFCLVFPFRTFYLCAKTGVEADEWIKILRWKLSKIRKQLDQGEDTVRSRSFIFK
Protocol: (§1) Binding and Isolation of Radiolabeled In Vitro Translated Proteins with Biotinylated Phosphoinositides. Avidin beads (Ultralink immobilized Neutravidin™, Pierce Chemical) were washed twice with 5 volumes of wash/binding (WB) buffer (10 mM HEPES pH=7.4, 150 mM NaCl, 0.5% NP-40, 5 mM DTT). The beads were then reconstituted in 2×volume of WB buffer and the biotinylated phosphoinositide was added. Generally, 0.1 μl of 100 μM biotinylated lipid was bound per 1 μl of packed avidin beads. The biotinylated lipid was incubated with the beads for 1-2 hours at 4° C. with gentle agitation and then washed twice with 10×-bead volume of WB buffer to remove excess ligand. Control beads without biotinylated lipid were prepared in an identical manner but without the addition of the lipid. 5 μl of the ^35S-labelling reaction containing the in vitro transcribed/translated protein was then added to the tubes and the protein was allowed to bind for 2 hours at 4° C. with gentle agitation. The tubes were then centrifuged briefly, the beads were washed 2×with 0.5 ml WB buffer, and the bound proteins were eluted by boiling the beads in 20 μl Laemmli sample buffer containing 5% 2-mercaptoethanol. The proteins were then separated on a 13.75% SDS-PAGE gel. Following electrophoresis the gel was soaked in EnHance (Dupont/NEN) for 1 hour and then in a 7.5% w/v solution of PEG-3350 for 1 hour. The gel was then dried and subjected to autoradiography.
Competition Binding of Isolated Proteins for Non-biotinylated Lipids over Biotinylated Lipids. […] Binding was quantitated by measuring the intensities of bands from the autoradiogram or by scintillation counting of the eluted proteins in Laemmli sample buffer using Opti-fluor (Packard). Binding curves were modeled by the equation: […]
where % bound represents the quantity of protein bound to the biotinylated lipid coated beads in the presence of a concentration C of competing lipid. IC50 is the molar excess of competitor C required to reduce the % bound to 50% of its maximal value in the absence of competitor.
In Vitro Translation Expression Cloning. A murine spleen cDNA library containing 2×10^5 independent clones was divided into 1700 individual small pools. The cDNAs in this library had been cloned into the in vitro transcription vector pCS2(+) under control of the SP6 promoter. Individual cDNAs from positive pools were isolated from the other cDNAs of the pool using a 96-well format as described previously. The individual cDNAs were sequenced (Harvard Biopolymer Facility) and compared with known sequences by searching GenBank databases.

[4] = biological target: PH domain of Akt (Homo sapiens, UniProt P31749); settings: two published studies; cited from earlier work
Sequence of PH domain of Akt (P31749 5-108 limits assumed): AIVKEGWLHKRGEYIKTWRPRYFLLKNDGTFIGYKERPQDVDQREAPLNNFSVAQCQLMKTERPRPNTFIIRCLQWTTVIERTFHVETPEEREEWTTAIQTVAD

[5] = biological target: T4, PDK1 (C-terminal fragment with PH domain) (Mus musculus, UniProt Q9Z2A0); assay: Binding of 35S-labeled in vitro translated protein to avidin beads pre-bound with biotinylated phosphoinositide; parameters: species or system murine; settings: FIG. 3A top panel right
T4 construct: the first in-frame AUG codon appears at the end of the kinase domain such that only the entire PH domain of PDK1 is translated; made in house; host or cells: in vitro transcription/translation (reticulocyte lysate) of a clone from a murine spleen cDNA library in pCS2(+)
T4 sequence (Q9Z2A0 462-553 limits assumed): T1 sequence (O15530 459-550 limits assumed) with R88Q, H92N
Protocol: as §1, with “The gel was then dried and subjected to autoradiography.” left out

[6] = biological target: MBP-Akt PH fusion protein (Mus musculus, UniProt P31750); assay: Competition binding of non-biotinylated lipids against biotinylated PtdIns-3,4,5-P3 on avidin beads; settings: FIG. 2C legend; compared with PtdIns-4,5-P2
Sequence of MBP-Akt PH fusion protein (P31750 1-130): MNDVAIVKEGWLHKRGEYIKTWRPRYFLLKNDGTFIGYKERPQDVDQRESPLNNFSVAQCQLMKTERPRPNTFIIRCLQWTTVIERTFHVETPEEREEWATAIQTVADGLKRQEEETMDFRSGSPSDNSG
Protocol: The proteins were expressed by transcribing/translating 0.01-1 μg of DNA of MBP or MBP-Akt PH with the Promega TnT Coupled Reticulocyte Lysate System using SP6 RNA polymerase and ^35S-methionine (in vivo labeling grade, Amersham) according to the manufacturers protocol.
Binding and Isolation of Radiolabeled In Vitro Translated Proteins with Biotinylated Phosphoinositides. Avidin beads (Ultralink immobilized Neutravidin™, Pierce Chemical) were washed twice with 5 volumes of wash/binding (WB) buffer (10 mM HEPES pH=7.4, 150 mM NaCl, 0.5% NP-40, 5 mM DTT). The beads were then reconstituted in 2×volume of WB buffer and the biotinylated phosphoinositide was added. Generally, 0.1 μl of 100 μM biotinylated lipid was bound per 1 μl of packed avidin beads. The biotinylated lipid was incubated with the beads for 1-2 hours at 4° C. with gentle agitation and then washed twice with 10×-bead volume of WB buffer to remove excess ligand. […]
Competition Binding of Isolated Proteins for Non-biotinylated Lipids over Biotinylated Lipids. […] Binding was quantitated by measuring the intensities of bands from the autoradiogram or by scintillation counting of the eluted proteins in Laemmli sample buffer using Opti-fluor (Packard). […]

Substance | affinity for the PH domain of PDK1 [1] | binding to the PH domain of EST684797 [2] | relative affinity for PHISH in competition binding studies [3] | displacement of PHISH from PtdIns-3,4,5-P3-biotin bound to avidin beads [3] | rank order of affinities for the PH domain of Akt [4] | binding of the expressed purified PDK1 fragment (single clone) [5] | displacement of MBP-PH from PtdIns-3,4,5-P3-biotin [6]
phosphatidylinositol-3,4,5-trisphosphate [PtdIns-3,4,5-P3] | four-fold higher affinity | binds tightly and selectively | equal affinity | preferentially displace | – | – | –
phosphatidylinositol-3,4-bisphosphate [PtdIns-3,4-P2] | – | binds tightly and selectively | equal affinity | preferentially displace | PtdIns-3,4,5-P3>PtdIns-3,4-P2>>PtdIns-4,5-P2 | apparent lower affinity than for PtdIns-3,4,5-P3 | preferentially displace
phosphatidylinositol-4,5-bisphosphate [PtdIns-4,5-P2] | much lower affinity | – | significantly lower affinity | – | PtdIns-3,4,5-P3>PtdIns-3,4-P2>>PtdIns-4,5-P2 | – | –
